Reference: EPA's ToxValDB 9.5 (doi:10.2903/j.efsa.2015.3984)

Tests used:
Apis mellifera = conditions: acute, duration: 48 hours, mortality
Bibionidae = conditions: chronic/long-term; duration: 28 days; development
Canidae = conditions: oral, Dog Other, organ weight
Colinus virginianus = conditions: reproduction developmental
Coturnix japonica = conditions: acute, oral
Daphnia magna = conditions: chronic/long-term; duration: 21 days
Lepomis macrochirus = conditions: acute; duration: 96 hours; mortality
Menidia beryllina = conditions: acute; duration: 96 hours; mortality
Mus musculus = conditions: acute; oral; mortality
Oncorhynchus mykiss = conditions: mortality
Palaemonetes pugio = conditions: acute; duration: 96 hours; mortality
Rattus norvegicus = conditions: chronic
Aphidius rhopalosiphi = assay: LR50; higher = less toxic; conditions: acute; duration: 48 hours; mortality
Typhlodromus pyri = assay: LR50; higher = less toxic; conditions: chronic/long-term; duration: 7 days; mortality

How did the LD50 (Apis mellifera; dermal) turn out when COc1ncc(F)c2nc(S(=O)(=O)Nc3c(F)cccc3F)nn12 [Florasulam] was run?
The LD50 was greater than 100 µg/piece.

And the LD50 (Apis mellifera; oral, unspecified)?
The LD50 was greater than 100 µg/piece.

And the NOEC (Bibionidae)?
The NOEC was 10 mg/L.

And the NOAEL (Canidae; chronic, duration: 1 years)?
Its NOAEL is 5 mg/kg-day.

And the NOAEL (Canidae; subchronic, duration: 90 days)?
Its NOAEL is 5 mg/kg-day.

And the NOAEL (Colinus virginianus)?
Its NOAEL is 1500 mg/kg-day.

And the LC50 (Coturnix japonica; diet)?
Its LC50 is greater than 938 mg/kg-day.

And the LD50 (Coturnix japonica; mortality)?
Its LD50 is 1050 mg/kg-day.

What about the NOEC (Daphnia magna) of the same compound?
The NOEC was 23.4 mg/L.

And the LC50 (Lepomis macrochirus)?
The LC50 was greater than 100 µg/mL.

And the LC50 (Menidia beryllina)?
The LC50 was greater than 122 µg/mL.

What about the LD50 (Mus musculus) of the same compound?
Its LD50 is greater than 5000 mg/kg-day.

What about the LC50 (Oncorhynchus mykiss; acute, duration: 96 hours) of the same compound?
The LC50 was greater than 100 µg/mL.

What about the NOEC (Oncorhynchus mykiss; chronic/long-term, duration: 28 days) of the same compound?
Its NOEC is 119 mg/L.

And the LC50 (Palaemonetes pugio)?
Its LC50 is greater than 120 µg/mL.

What about the NOAEL (Rattus norvegicus) of the same compound?
Its NOAEL is greater than 100 mg/kg-day.

And the LC50 (Tagia sp.; acute, duration: 14 days, mortality)?
Its LC50 is greater than 1320 mg/kg.

What about the NOEC (Tagia sp.; chronic/long-term) of the same compound?
Its NOEC is 0.203 mg/kg.

What about the LR50 (Aphidius rhopalosiphi) of the same compound?
The LR50 was greater than 15 g/ha.

And the LR50 (Typhlodromus pyri)?
The LR50 was greater than 15 g/ha.
